Measurements: PMC9855104, “Use of High-Dose Nebulized Colistimethate in Patients with Colistin-Only Susceptible Acinetobacter baumannii VAP: Clinical, Pharmacokinetic and Microbiome Features” (Antibiotics, 2023)
“Also recorded” adds a separate entry of the source. Peptide text beside a SMILES is read from it.

Tests used:
[1] = Safety and adverse events of colistin nebulization (DHHS-CTCAE version 3.0); type: in vivo, ICU patients; details: 5 MIU q8, vibrating mesh nebulizer; 134 patients, 1376 days of nebulization
Protocol: Patients received 5 MIU of CMS (Colimycine®, Sanofi, Paris, France) dissolved in 6 mL of saline solution by nebulization over 30 min using a vibrating-mesh nebulizer (Aeroneb Pro®, Aerogen, Galway, […]) every 8 h. Solutions for nebulization were freshly prepared. During aerosol delivery, all patients were sedated and received assisted/controlled mechanical ventilation with a tidal volume of 6–8 mL/kg of predicted body weight and respiratory rates of 12–15 cycles/min. The humidifier was removed and the nebulizer was inserted near the Y-piece connector on the inspiratory arm
VAP, septic shock, and acute kidney injury requiring continuous […] replacement therapy were defined according to current recommendations. VAP was diagnosed in the presence of radiological and clinical signs consisting of a new and persistent infiltrate on the chest radiograph associated with two of the three following criteria: purulent tracheal aspirates, hyperthermia > 38 °C or hypothermia < 36 °C, and peripheral leukocytosis > 10,000/μL or < 1500/μL. […] Safety and adverse events (AE) were determined through the biochemical abnormalities documented in medical records according to the Department of Health and Human Services—Common Terminology Criteria for Adverse Events (DHHS-CTCAE version 3.0) classification. […]

[2] = ELF pharmacokinetics of colistin and CMS after nebulization (micro-BAL, LC-MS/MS); type: in vivo, ICU patients
Protocol: According to patients’ respiratory status, two micro-bronchoalveolar lavages (BALs) (40 mL of sterile 0.9% saline solution were blindly instilled through a telescopic catheter and immediately aspirated in a trap) were performed at steady state, before nebulization and 1 h after the end. ELF colistin concentration (COLELF) was calculated from BAL concentration (COLBAL) using urea as a dilution marker: COLELF = COLBAL X urea dilution index (plasma urea concentration/BAL urea concentration).
Purification and separation of colistin and CMS were performed using and modifying the Gobin assay. BAL samples were extracted by solid-phase extraction followed by evaporation to dryness and reconstitution in mobile phase. The chromatographic separation was carried out on an AQUITY UPLC C18 column. Polymyxin B was used as internal standard. The detection was performed on a triple quadrupole tandem mass spectrometer using multi-reaction monitoring via an electrospray ionization source with positive ionization mode.

[3] = system: Acinetobacter baumannii isolates; experiment: Minimum inhibitory concentration of AB isolates; type: cell-based; details: median [interquartile range]; values available for 79 patients; Micronaut AST system-based BMD, VITEK 2 AST-N397 card; EUCAST version 11.0
Protocol: AB isolates were identified by using matrix-assisted laser desorption ionization-time of flight mass spectrometry (MALDI-TOF MS). Minimum inhibitory concentrations (MICs) were determined by a Micronaut AST system-based BMD, VITEK 2 AST-N397 card, according to the manufacturer’s instructions. EUCAST (version 11.0, 2021) clinical breakpoints were used to interpret MICs.

[4] = cited from earlier work
Protocol: Despite the recent introduction of new antibiotics against difficult-to-treat bacteria, colistin is still used in the critically ill setting, especially as part of combination therapies. This drug is a antibiotic; it is administered as intravenous colistimethate (CMS) and then undergoes extensive plasmatic hydrolysis. CMS is mainly metabolized by the renal route apart from the amount that is modified to colistin. This agent is cleared by extra-renal, yet unknown, mechanisms, but its plasmatic levels may increase in the presence of renal failure due to the reduced clearance a ... || From a pharmacokinetic standpoint, CMS nebulization may overcome its negligible ELF penetration after intravenous administration. Although many factors may interfere with the reliability of the detected lung antibiotics concentration, including the diagnostic technique, the binding to inflammatory molecules, and the heterogeneity of lung aeration, it is widely accepted that CMS nebulization is the only strategy to obtain alveolar levels above MIC for mostly Gram-negative MDR pathogens. When treating VAP due to COS bacteria, a correct drug dose and nebulizer strategy should be reco ...

[5] = in vivo; cited from earlier work
Description: In addition, the observed safety profile may be further improved by correct CMS ...

[6] = system: multidrug-resistant / COS Gram-negative VAP; details: cited from earlier work
Description: There is pre-clinical evidence to support vibrating-mesh nebulizers, over jet and ultrasonic ones.

[7] = following 24 h of dosing, vibrating meshes, ten patients with MDR VAP
[8] = 326 patients with COS Gram-negative VAP, aerosolized 2 MIU q 8 h, jet nebulizer

Compound | Drug-related / pulmonary adverse events of nebulization (in words) [1] | ELF concentration one hour after nebulization ([2]; median [IQR], 7 patients, after 72 h of nebulized therapy (CMS 5 MIU q8), micro-BAL, urea dilution index, UPLC C18, tandem MS) | ELF colistin concentrations relative to CRAB minimal-inhibitory concentration (in words) ([2]; nebulized CMS 5 MIU q8) | MIC [3] | Samples with colistin ELF concentrations above 10 mcg/mL ([4]; 20 patients, 1 MIU nebulization, jet and ultrasonic machines, samples at 1 h after the aerosol) | Trough-predicted colistin ELF level, 3 MII nebulized CMS [4, 7] | Trough-predicted colistin ELF level, 5 MIU nebulized CMS [4, 7] | ELF penetration after intravenous administration (in words) [4] | Bronchospasm [5] | Episodes of bronchospasm (in words) [5] | Neuromuscular toxicity [5] | Reduction in the rate of renal failure [5] | Clinical cure rate vs controls treated with intravenous antibiotics (in words) ([6]; 5 MIU q8 h, vibrating plate nebulizer, 44 patients with multidrug-resistant AB and Pseudomonas aeruginosa vs 122 controls) | DAY-14 clinical failure rate (in words) [6, 8] | Mortality (in words) [6, 8]
CC[C@H](C)CCCCC(=O)N[C@@H](CCN)C(=O)N[C@H](C(=O)N[C@@H](CCN)C(=O)N[C@H]1CCNC(=O)[C@H]([C@@H](C)O)NC(=O)[C@H](CCN)NC(=O)[C@H](CCN)NC(=O)[C@H](CC(C)C)NC(=O)[C@@H](CC(C)C)NC(=O)[C@H](CCN)NC1=O)[C@@H](C)O [colistin] (HELM PEPTIDE1{[CC[C@H](C)CCCCC(=O)[*:2]].[Dab].T.[Dab].[Dab].[Dab].[dL].L.[Dab].[Dab].T}$PEPTIDE1,PEPTIDE1,5:R3-11:R2$$$V2.0) | did not observe any; also recorded: without observing any | 121.7 [40.1–143.1] mcg/mL | far above | 1 [0.5–1] mcg/mL | 25% | 120.4 µg/mL | 200.7 µg/mL | minimal |  |  |  |  |  |  | 
colistimethate [CMS] | did not observe any |  |  |  |  |  |  | negligible | 2% | did not report any | 3% | 33% | similar | significantly lower | without affecting
